{"source": "patent US9932637B2", "about": "“Genetic polymorphisms associated with cardiovascular disorders and drug response, methods of detection and uses thereof” (CELERA CORPORATION, priority 2003, dated 2018)", "tested_on": "patients with prior myocardial infarction (CARE study)", "test": "CARE trial: pravastatin vs placebo, recurrent MI (RMI), overall and by ABCA1/NPC1/HSPG2 genotype pattern", "type": "in vivo, human", "description": "In order to identify genetic markers associated with acute coronary events (e.g. MI, stroke, unstable angina, congestive heart failure, etc.) or response to statin treatment for the prevention of coronary events, samples from the Cholesterol and Recurrent Events (CARE) study (a randomized multicentral double-blinded trial on secondary prevention of acute coronary events with pravastatin) (Sacks et al., 1991, Am. J. Cardiol. 68: 1436-1446) were genotyped. A well-documented myocardial infarction (MI) was one of the enrollment criteria for entry into the CARE study. Patients were enrolled in the CARE trial from 80 participating study centers. […] Patients were randomized to receive either 40 mg of pravastatin once daily or a matching placebo. The primary endpoint of the trial was death from coronary heart disease and the median duration of follow-up was 5.0 years (range, 4.0 to 6.2 years). […] Secondary endpoints of other related cardiovascular or metabolic disease events, and changes in clinical variables were also recorded in pravastatin-treated and placebo groups. All individuals included in the study had signed a written informed consent form and the study protocol was approved by the respective Institutional Review Boards (IRBs).\nFor genotyping SNPs in CARE patient samples, DNA was extracted from blood samples using conventional DNA extraction methods such as the QIA-amp kit from Qiagen. Genotypes were obtained on an ABI PRISM® 7900HT Sequence Detection PCR system (Applied Biosystems, Foster City, Calif.) by kinetic allele-specific PCR, similar to the method described by Germer et al. (Germer S., Holland M. J., Higuchi R. 2000, Genome Res. 10: 258-266).\nThe genotype data generated from the DNA of patients who participated in the CARE study was analyzed to determine the effect that pravastatin treatment had on the occurrence of RMI in patients with each of the potential genotypes (low risk, protective or high risk, non-protective) for the ABCA1 gene, the NPC1 gene and the […] gene independently.\nThe effect of pravastatin treatment on the occurrence of RMI in patients with each of the potential genotypes (protective, low risk genotype or non-protective, high risk genotype) for each of the ABCA1 gene, NPC1 gene, and HSPG2 gene alone, and combinations with the other two genes thereof are presented in Table 17.\nThis is a 50% reduction in risk over a 5 year period for RMI. […] This is an 80% reduction in risk over a 5 year period for RMI.", "key": {"[1]": {"details": "Pattern 0, pravastatin vs placebo"}, "[2]": {"details": "Pattern 2, pravastatin vs placebo"}, "[3]": {"details": "Pattern 3, pravastatin vs placebo"}}}
{"compound": "CC[C@H](C)C(=O)O[C@H]1C[C@H](O)C=C2C=C[C@H](C)[C@H](CC[C@@H](O)C[C@@H](O)CC(=O)O)[C@H]21", "note": "[pravastatin]", "values": [{"measurement": "No RMI (number of patients)", "setting": "All, pravastatin arm", "result": 1367}, {"measurement": "RMI (number of patients)", "setting": "All, pravastatin arm", "result": 106}, {"measurement": "Risk (of RMI)", "setting": "All, pravastatin arm", "result": 0.072}, {"measurement": "RDStatin", "setting": "All, pravastatin vs placebo", "result": 0.023}, {"measurement": "RRStatin", "setting": "All, pravastatin vs placebo", "result": 0.76}, {"measurement": "5 year risk of a RMI", "setting": "CARE patients with pattern 0 genotypes receiving pravastatin", "result": 7.9, "unit": "%"}, {"measurement": "5 year risk of a RMI", "setting": "CARE patients with pattern 2 genotypes receiving pravastatin", "result": 6.8, "unit": "%"}, {"measurement": "5 year risk of a RMI", "setting": "CARE patients with pattern 3 genotype receiving pravastatin", "result": 4.6, "unit": "%"}, {"measurement": "reduction in risk for RMI in treatment vs. placebo groups", "setting": "CARE, all patients", "result": 25, "unit": "%"}, {"measurement": "5 year risk of having a recurrent MI (RMI)", "setting": "CARE, all patients who received pravastatin 40 mg once daily", "result": 7.2, "unit": "%"}, {"measurement": "Cox Proportional Hazard Ratio (HR age-adjusted) for RMI", "setting": "CARE, all patients, pravastatin vs placebo", "result": 0.75}, {"measurement": "Age-adjusted pravastatin effect on RMI, RR", "setting": "High risk ABCA1 genotype", "result": 0.9567}, {"measurement": "Age-adjusted pravastatin effect on RMI, RR", "setting": "High risk HSPG2 genotype", "result": 0.8097}, {"measurement": "Age-adjusted pravastatin effect on RMI, RR", "setting": "High risk NPC1 genotype", "result": 1.0824}, {"measurement": "Age-adjusted pravastatin effect on RMI, RR", "setting": "High risk, non-protective genotypes (ABCA1, NPC1, HSPG2)", "result": 1.7175}, {"measurement": "Age-adjusted pravastatin effect on RMI, RR", "setting": "Low risk ABCA1, NPC1 and HSPG2 (pattern 3 genotype)", "result": 0.2399}, {"measurement": "Age-adjusted pravastatin effect on RMI, RR", "setting": "Low risk ABCA1 and HSPG2 only", "result": 1.0054}, {"measurement": "Age-adjusted pravastatin effect on RMI, RR", "setting": "Low risk ABCA1 and NPC1 only (pattern 2 genotype)", "result": 0.5258}, {"measurement": "Age-adjusted pravastatin effect on RMI, RR", "setting": "Low risk ABCA1 genotype", "result": 0.5883}, {"measurement": "Age-adjusted pravastatin effect on RMI, RR", "setting": "Low risk HSPG2 genotype", "result": 0.3934}, {"measurement": "Age-adjusted pravastatin effect on RMI, RR", "setting": "Low risk NPC1 and HSPG2 only", "result": 0.2964}, {"measurement": "Age-adjusted pravastatin effect on RMI, RR", "setting": "Low risk NPC1 genotype", "result": 0.5938}, {"measurement": "Age-adjusted pravastatin effect on RMI, RR", "setting": "Low risk, protective ABCA1 only", "result": 0.8765}, {"measurement": "Age-adjusted pravastatin effect on RMI, RR", "setting": "Low risk, protective HSPG2 only", "result": 0.2487}, {"measurement": "Age-adjusted pravastatin effect on RMI, RR", "setting": "Low risk, protective NPC1 only", "result": 0.8954}, {"measurement": "No RMI (number of patients)", "setting": "Pattern 0, pravastatin arm", "result": 906}, {"measurement": "RMI (number of patients)", "setting": "Pattern 0, pravastatin arm", "result": 78}, {"measurement": "Risk (of RMI)", "setting": "Pattern 0, pravastatin arm", "result": 0.079}, {"measurement": "RDStatin", "setting": "[1]", "result": 0.001}, {"measurement": "RRStatin", "setting": "[1]", "result": 0.98}, {"measurement": "No RMI (number of patients)", "setting": "Pattern 2, pravastatin arm", "result": 342}, {"measurement": "RMI (number of patients)", "setting": "Pattern 2, pravastatin arm", "result": 25}, {"measurement": "Risk (of RMI)", "setting": "Pattern 2, pravastatin arm", "result": 0.068}, {"measurement": "RDStatin", "setting": "[2]", "result": 0.057}, {"measurement": "RRStatin", "setting": "[2]", "result": 0.55}, {"measurement": "No RMI (number of patients)", "setting": "Pattern 3, pravastatin arm", "result": 62}, {"measurement": "RMI (number of patients)", "setting": "Pattern 3, pravastatin arm", "result": 3}, {"measurement": "Risk (of RMI)", "setting": "Pattern 3, pravastatin arm", "result": 0.046}, {"measurement": "RDStatin", "setting": "[3]", "result": 0.147}, {"measurement": "RRStatin", "setting": "[3]", "result": 0.24}, {"measurement": "HR for RMI, pravastatin vs no statin", "setting": "pattern 2 genotypes", "result": 0.53}, {"measurement": "reduction in risk over a 5 year period for RMI", "setting": "pattern 2 genotypes", "result": 50, "unit": "%"}, {"measurement": "HR for RMI, pravastatin vs no statin", "setting": "pattern 3 genotype", "result": 0.2}, {"measurement": "reduction in risk over a 5 year period for RMI", "setting": "pattern 3 genotype", "result": 80, "unit": "%"}]}
